Results reported in patent US9493540B2, “Ecdysone receptor/invertebrate retinoid X receptor-based inducible gene expression system” (Intrexon Corporation, priority 2001, dated 2016).

What was measured:
Assay type in all cases: cell-based, Choristoneura fumiferana
[1] = tested on: GAL4:CfEcR-DEF/VP16:LmUSP-EF; assay: Luciferase reporter gene induction in stably transfected CHO cells (pFRLuc); conditions: stable clone 1A2, CHO cells, 0, 1, 5, or 25 μM ligand, 48 hours, maximum fold induction
Source text: This Example describes the construction of host cells comprising the EcR/invertebrate RXR-based gene expression modulation system according to the invention. To make stable cells expressing GAL4:CfEcR-DEF/VP16:LmUSP-EF (switch 1.18, prepared as described in Example 1), Applicants transfected the gene expression cassettes encoding the hybrid GAL4:CfEcR-DEF and VP16:LmUSP-EF polypeptides into Chinese hamster ovary CHO cells comprising a stably transfected reporter plasmid pFRLuc. […] The cells were harvested and reporter activity was assayed.
The transfected CHO cells were grown in the presence of 0, 1, 5, or 25 μM PonA steroid ligand or GS™-E non-steroid ligand for 48 hours. The cells were harvested, lysed and the reporter activity was measured. Total fly luciferase relative light units (RLU) are presented. The numbers on the top of the bars correspond to the maximum fold induction for each treatment. Bulk populations of cells were selected for resistance to the antibiotic neomycin (VP16:LmUSP/VP16:RXR constructs have the neomycin resistance gene incorporated). Several clones from each population were isolated by end point dilution. Three clones of stably transfected GAL4:CfEcR-DEF/VP16:LmUSP-EF cells were analyzed (see FIG. 10, clone 1A2; the data related to the two other clones are not shown).

CfEcR/LmUSP-based switch = assay: Luciferase reporter induction by two-hybrid switches transfected into NIH3T3 cells; conditions: non-steroid compared with steroid PonA, 0, 1, 5 or 25 μM, 48 hours
Description: (§1) Transfections: DNAs corresponding to the various switch constructs outlined in Example 1, specifically switches 1.1 through 1.8, were transfected into mouse NIH3T3 cells (ATCC) as follows. […] For 12-well plates, 4 μl of Superfect™ was mixed with 100 μl of growth medium. […] The cells were harvested and reporter activity was assayed. […] Ligands: The steroidal ligand Ponasterone A (PonA) was purchased from Sigma Chemical Company. […] Reporter Assays: Cells were harvested 48 hours after adding ligands. […] Twenty μl of lysate were assayed. […] In addition, LmUSP worked better than vertebrate RXR as a CfEcR partner. In particular, both the sensitivity, i.e. the concentration of ligand required for transactivation, and the magnitude of transactivation were increased with LmUSP compared to vertebrate RXR. […]
Briefly, full-length EcR and truncated EcRs, created by a truncation mutation at the junctions of A/B, C, D, E and F domains and fused to a GAL4 DNA binding domain encoding polynucleotide (SEQ ID NO: 33) as described in Example 1 above. […] The cells were harvested, lysed and luciferase reporter activity was measured in the cell lysates. […] The analysis was performed in triplicate and mean luciferase counts [total relative light units (RLU)] were determined as described above.

[2] = tested on: GAL4CfEcR-DEF/VP16LmUSP-EF (switch 1.18); assay: Effect of a second ligand on transactivation of the gene switch with pFRLuc in NIH3T3 cells; conditions: non-steroid ligand 1 μM or less, absence of 9-Cis-retinoic acid, 48 hours
Description: as §1
In particular, Applicants have determined the effect of 9-cis-retinoic acid on the transactivation potential of the GAL4CfEcR-DEF/VP16LmUSP-EF (switch 1.18) gene switch along with pFRLuc in NIH3T3 cells in the presence of non-steroid (GSE) for 48 hours.
Briefly, GAL4CfEcR-DEF, pFRLuc and VP16LmUSP-EF were transfected into NIH3T3 cells and the transfected cells were treated with 0, 0.04, 0.2, 1, 5 and 25 μM non-steroidal ligand (GSE) and 0, 1, 5 and 25 μM 9-Cis-retinoic acid (Sigma Chemical Company). The reporter activity was measured at 48 hours after adding ligands.

CC(C)CC[C@@H](O)[C@](C)(O)[C@H]1CC[C@@]2(O)C3=CC(=O)[C@@H]4C[C@@H](O)[C@@H](O)C[C@]4(C)[C@H]3CC[C@]12C [PonA, Ponasterone A]
fold induction [1]: 42 fold

CCc1c(OC)cccc1C(=O)NN(C(=O)c1cc(C)cc(C)c1)C(C)(C)C [non-steroidal ligand, N-(2-ethyl-3-methoxybenzoyl)-N′-(3,5-dimethylbenzoyl)-N′-t-butylhydrazine]
fold induction [1]: 162 fold
sensitivity of the switch to ligand (CfEcR/LmUSP-based switch): more sensitive
induction of reporter activity [2]: very little induction
